Data set [1] can be described thus: Toxicity analysis of UPI peptide, plasma biomarkers. The data set is classed as in vivo, mice. Also noted: ALB: unit not given here. The settings on record: for ALB: wild type mice, i.v. every second day up to 3 months. As to the method:
Age and gender matched wild type mice were intravenously injected with PBS (Control) or different concentration of UPI peptide every second day for up to 3 months. Plasma biochemical parameters were evaluated by the UT-Southwestern Medical Center Core Facility in Dallas, Tex.

Data set [2] concerns atherosclerotic lesion. Briefly: ApoE-/- mouse atherosclerosis model. To be noted: in vivo. An excerpt:
(§1) FIGS. 25A-E. Therapeutic potential in atherosclerosis animal models. (FIG. 25A) Targeting lyp-UIM peptide to atheroma by FITC conjugated peptide. (FIG. 25B). […] (FIG. 25C) Quantification for FIG. 25B, red bars represent lesion area by percentile; green bars represent macrophage percentile in different treatment. P values is indicated in the graphs.

The subject of data set [3] is atherosclerosis lesion. Briefly: Carotid atherosclerotic mouse model. It is filed as in vivo.
Description: as §1

Data set [4] is described as follows: Kinetic analysis and FUPI peptide distribution in vivo in LLC or B16 tumor-bearing mice. The procedure:
FIGS. 7A-C. Pharmacokinetics of UPI peptide in ex vivo plasma and tumor vessels. (FIG. 7A) Biotinylated-UPI peptide was incubated in ex vivo plasma at 1 μg/ml concentration. The remaining biotin-labeled UPI peptide was quantified by ELISA as indicated at different time point, n=5; (FIG. 7B) FUPI peptide (10 mg/kg, one injection) was i.v.-injected into mice bearing B16 tumors. A time course was scheduled to sacrifice mice as indicated from 2-48 hrs.
FIG. 8. FUPI peptide specifically homes to tumors. B16 tumor-bearing mice were sacrificed at 24-hr time point after control (PBS) or FUPI peptide injection (10 mg/kg, i.v-injection). Tumor and major organs were stained with CD31 (red) and imaged at red channel (CD31), blue channel (DAPI) and green channel (FUPI). Note that green (FITC) is seen only in tumors. […] Other major organs (liver, lung, heart, spleen, kidney, colon, brain, etc) are free of green color, n=4; scale bar: 200 μm.
LLC or B16 tumor-bearing mice were intravenously injected with 20 mg/kg FUPI peptide then sacrificed at different time points. […] FITC and CD31 fluorescent intensity was quantified using Metamorph software. The number of FUPI and CD31-positive vessels were counted and presented as a percentage of FUPI-positive vessels-to-total CD31-positive vessels.

Data set [5] deals with HUVEC^αvβ3 cells. Briefly: Targeting and localization of FITC-conjugated peptides in cultured HUVEC. It is filed as cell-based, human. The procedure:
FIGS. 6A-E. Targeting and localization of UPI peptides in cultured HUVEC^αvβ3. (FIGS. 6A-C) HUVECs were co-transfected with integrins αv and β3 plasmids by electroporation (Nucleofactor device, Lonza), generating HUVEC^αvβ3 cells. 10 μM FUPI (FITC-conjugated UPI) peptide was added to HUVEC^αvβ3 cells or pcDNA transfected control HUVECs.
To ensure targeting specificity and efficacy of the UPI, the inventors treated HUVEC overexpressing αvβ3 integrin (HUVEC^αvβ3) with FITC-conjugated UPI (FUPI) or AP-UIM (FITC-AP-UIM) (Table 2). Normal quiescent endothelial cells, such as HUVEC, express endogenous αvβ3 integrin. However, compared to tumor endothelial cells this expression is considerably lower. By overexpressing αvβ3 integrin in HUVEC, the inventors distinguished peptide targeting to endothelial cells in quiescent versus tumor vasculature. Overexpression of αvβ3 integrin was monitored by FACS and Western blotting (FIGS. 6A-C). […] Given the selective nature of the UPI peptide in vitro, the inventors next validated its tumor vascular-targeting efficacy in vivo after intravenous (i.v.) administration into Lewis lung carcinoma (LLC) and B16F10 (B16) melanoma subcutaneous tumor-bearing mice. […]

For data set [6], the system named is Lewis lung carcinoma (LLC) tumors. Briefly: Subcutaneous LLC tumor model. More on the design: species or system mice. To be noted: mouse, in vivo. The text has this:
C56BL/6 mice and TRAMP prostate cancer models were obtained from Jackson Laboratory. SCID/NOD immune-deficient mice were purchased from Charles River Labs (Wilmington, Mass.). WT-Flk, EC-iDKO, EC-iDKO-Flk and EC-iDKO-Notch mice were generated by crossing conditional double knockout mice (EC-iDKO) with Flk-1^fl/fl or NICD^LSL mice as described in (FIGS. 13A-D) (Pasula et al., 2012; Tessneer et al., 2014). All animal protocols have been approved by the IACUC in Oklahoma Medical Research Foundation. Animal tumor models were established as follows: • (1) Subcutaneous Tumor Models (LLC, melanoma B16 and glioma U87/SCID): LLC, melanoma and glioma tumor models were established as previously described (Pasula et al., 2012). Synthetic peptides were administered at 10 mg/kg intravenously every second day beginning after small tumors were established (20-50 mm^3; approximately 12 days post implantation). Tumor volumes were monitored every other day until euthanized following IACUC tumor scoring system. • (2) TRAMP Prostate Tumor Model (Transgenic Adenocarcinoma of Mouse Prostate). […] Mortality rates were recorded. Prostate tumors were analyzed by weighing genitourinary tract (GU), H&E staining, IHC, IF staining and Western blotting as previously described (Pasula et al., 2012; Tessneer et al., 2013). Lymph nodes, lung, liver, spleen and bones were similarly analyzed for metastasis. • (3) B16 Melanoma Metastasis Model. […] Mice were sacrificed after 5 weeks and tissues (including lung, liver and lymph nodes, etc.) were harvested and analyzed for metastasis by gross morphology, H&E, IHC or IF staining, as well as Western blotting. • (4) Orthotopical Glioma Tumor Models (U87/SCID and GL261/C56BL/6). […] Tumors were monitored by MRI as previously described (Pasula et al., 2012). […] Tumor volume was analyzed by MRI every other day until the mice died or were euthanized following IACUC tumor scoring system. Mortality rates were recorded. […]

Positions of bridges follow the written chain, without caps; N, C: chain ends. Non-standard residues stand in square brackets, D forms with d. Residues, ends and D or L forms follow the SMILES beside them. No end group written: not given here. *: point of attachment. FITC = O=C1OC2(c3ccc(O)cc3Oc3cc(O)ccc32)c2ccc(NC(=S)*)cc21 Some results are limits rather than exact numbers.

In data set [1] (10 mg/kg), `CC[C@@H](C)[C@@H](NC(=O)[C@@H](CS)NC(=O)CNC(=O)[C@@H](CCSC)NC(=O)[C@@H](CCC(=O)O)NC(=O)[C@@H](CCC(=O)O)NC(=O)[C@@H](CCCCN)NC(=O)[C@@H](CO)NC(=O)[C@@H](CCSC)NC(=O)[C@@H](C)NC(=O)[C@@H](CC(C)C)NC(=O)[C@@H](C)NC(=O)[C@@H](CC(C)C)NC(=O)[C@@H](CCC(N)=O)NC(=O)[C@@H](CC(C)C)NC(=O)[C@@H](CCC(N)=O)NC(=O)[C@@H](CC(C)C)NC(=O)[C@@H](CCC(=O)O)NC(=O)[C@@H](CCC(=O)O)NC(=O)[C@@H](CCC(=O)O)NC(=O)CNC(=O)[C@H](N)CO)C(=O)N[C@H](CCCCN)C(=O)N[C@H](CO)C(=O)N[C@H](CCCCN)C(=O)N[C@H](CCCNC(=N)N)C(=O)N[C@H](CCCCN)C(=O)N[C@@H]1CSSC[C@H](C(=O)O)NC(=O)[C@@H](CC(=O)O)NC(=O)[C@H]2CCCN2C(=O)CNC(=O)[C@@H](CCCCN)NC(=O)[C@@H](CC(=O)O)NC(=O)CNC(=O)[C@@H](CCCNC(=N)N)NC1=O` [UPI peptide] (H-[dS]G[dE][dE][dE][dL][dQ][dL][dQ][dL][dA][dL][dA][dM][dS][dK][dE][dE][dM]G[dC][dI][dK][dS][dK][dR][dK][dC][dR]G[dD][dK]G[dP][dD][dC]-OH; disulfide 28-36; N-terminus and C-terminus assumed) showed an ALT of 63.5 ± 10.8 U/L, an AST of 62.3 ± 3.6 U/L, a BUN of 18.0 ± 0.8 mg/dL and a CK of 163.5 ± 50.0 U/L. In data set [1] (10 mg/kg), this compound returned a CREA of 0.173 ± 0.02 mg/dL, a GGT of less than 5 U/L, an LDH of 397.8 ± 26.0 U/L and a TBIL of less than 0.01 mg/dL. This compound returned an ALB in data set [1] (10 mg/kg) of 1.98 ± 0.1. In data set [1] (25 mg/kg), the ALT came to 65.3 ± 4.0 U/L, the AST came out at 55.0 ± 5.3 U/L, the BUN is 18.7 ± 2.5 mg/dL and the CK came to 165.7 ± 8.6 U/L. In data set [1] (25 mg/kg), this compound came in with a CREA of 0.160 ± 0.02 mg/dL, a GGT of less than 5 U/L, an LDH of 365.7 ± 77.9 U/L and a TBIL of less than 0.01 mg/dL. In data set [1] (25 mg/kg), this compound gave an ALB of 2.0 ± 0.1. In data set [1] (50 mg/kg), this compound returned an ALT of 71.7 ± 6.0 U/L, an AST of 52.0 ± 4.4 U/L, a BUN of 21.0 ± 2.0 mg/dL and a CK of 153.7 ± 33.9 U/L. In data set [1] (50 mg/kg), the CREA was 0.180 ± 0.02 mg/dL, the GGT was less than 5 U/L, the LDH turned out to be 481.5 ± 12.1 U/L and the TBIL is given as less than 0.01 mg/dL. This compound showed an ALB in data set [1] (50 mg/kg) of 2.2 ± 0.2. The “kidney, liver or muscle functions (biomarker analysis, PBS vs UPI peptide-treated mice)” value in data set [1] (Table 3) is “no statistical differences in kidney, liver or muscle functions”.

Turning to “CGNKRTRGCSGEEELQLQLALAMSKEE [Lyp-UIM peptide]”, in data set [2], the “atherosclerotic lesion development (arch)” value is listed as “significantly attenuated atherosclerotic lesion development (arch)” and the “atherosclerotic lesion development (root)” value is “significantly attenuated atherosclerotic lesion development (root)”. For the same compound, the macrophage infiltration entry in data set [3] (mouse, in vivo) is listed as “reduced macrophage infiltration”. Moreover, the atherosclerosis lesion development entry in data set [3] (western diet) is on record as “greatly reduced atherosclerosis lesion development”.

With “FUPI: FITC-conjugated UPI peptide ({FITC}-[dS]G[dE][dE][dE][dL][dQ][dL][dQ][dL][dA][dL][dA][dM][dS][dK][dE][dE][dM]G[dC][dI][dK][dS][dK][dR][dK][dC][dR]G[dD][dK]G[dP][dD][dC]; disulfide 28-36 (inferred); not fully specified)”, the “retention within vessels of tumors after injection” value in data set [4] (B16 melanoma tumors, one i.v. injection) is “up to 48 hours”. Moreover, the “tissue distribution after intravenous injection” value in data set [4] (subcutaneous LLC or B16 melanoma tumors) is “significant concentration within tumor vasculature, but not other major organs”. For the same compound, the “peptide accumulation in HUVEC^αvβ3 versus HUVEC” value in data set [5] (FITC-conjugated peptide, 10 μM, 15 hr) is listed as “accumulated selectively in HUVEC^αvβ3, but not in HUVEC alone”. The “intracellular localization of accumulated peptide” value in data set [5] (HUVEC^αvβ3) is given as “highly enriched at the plasma membrane”.

On to “QEEEELQLALALSQSEAEEKMGCIKSKRKCRGDKGPDC [Hrs-UIM]”, for which the “tumor growth in LLC tumor-bearing mice, variant peptides” value in data set [6] is on record as “neither Eps15-UIM nor Hrs-UIM peptides affected tumor growth”.

On to “SEEDMIEWAKRESEREEEQRMGCIKSKRKCRGDKGPDC [Eps15-UIM]”, for which the “tumor growth in LLC tumor-bearing mice, variant peptides” value in data set [6] is reported as “neither Eps15-UIM nor Hrs-UIM peptides affected tumor growth”.

(Values after patent US11084852B2, “Ubiquitin interacting motif peptides as therapeutics” (OKLAHOMA MEDICAL RESEARCH FOUNDATION, priority 2015, dated 2021).)
